{"source": "patent US10172957B2", "about": "“Acid-labile lipophilic prodrugs of cancer chemotherapeutic agents” (priority 2011, dated 2019)", "key": {"[1]": {"assay": "Estimation of maximum tolerated dose (MTD) in the mouse", "conditions": "in vivo, iv, mice, in lipid emulsion (INTRALIPID), survival for 30 day observation period", "experimental": "Stock solutions of ART 198 and 273 and their respective acid labile, lipophilic molecular conjugates (ART 489 and ART 488, respectively) were prepared in ethanol and then diluted into a lipid emulsion (INTRALIPID®, 20% Soybean Oil, 1.2% egg yolk phospholipids, 2.25% glycerin and water) and injected intravenously into mice at various doses in milligrams per kilogram. The animals were observed daily for signs of toxicity and/or death for a period of 30 days. The MTD was defined as survival of the dosed mice for the full 30 day observation period."}, "CEM/VM-1-5 cells (MDR+)": {"test_system": "CEM/VM-1-5 cells (MDR+)", "assay": "cells", "type": "cell-based, human", "conditions": "for IC50: Homo sapiens, read-out: IC50 CEM/VM-1-5 (MDR + HTL), CEM/VM-1-5, MTT; for Degree of resistance (CEM/VM-1-5): IC50 of the resistant line divided by IC50 of sensitive CEM cells", "text": "A second evaluation of the cytotoxicity of the acid labile, lipophilic molecular conjugates was undertaken. […]\nThe second set of cells tested, CCRF-CEM or simply CEM, were derived from the blood of a patient with acute lymphoblastic leukemia. G. E. Foley, H. Lazarus, S. Farber, B. G. Uzman, B. A. Boone, and R E. McCarthy. Continuous culture of human lymphoblasts from peripheral blood of a child with acute leukemia. Cancer 18: 522-529 (1965). The subline CEM/VLB100 was developed to be resistant to up to vinblastine at 100 ng/ml. W. T. Beck, T. J. Mueller, and L. R. Tanzer. Altered surface membrane glycoproteins in Vinca alkaloid-resistant human leukemic lymphoblasts. Cancer Research 39: 2070-2076 (1979). Drug resistance is achieved by overexpression of the MDR1 gene. Resistance in the CEM subline designated CEM/VM-1-5, however, is “atypical.” M. K. Danks, J. C. Yalowich, and W. T. Beck. Atypical multiple drug resistance in a human leukemic cell line selected for resistance to teniposide (VM-26). Cancer Research 47: 1297-1301 (1987). The classes of drugs included in the “classic” multiple drug resistance phenotype are Vinca alkaloids, anthracyclines, epipodophyllotoxins and antibiotics. However, CEM/VM-1-5 cells retain sensitivity to the Vinca alkaloids despite resistance and cross-resistance to etoposide, anthracyclines and mitoxantrone. Danks, M. K.; Schmidt, C. A.; Cirtain, M. C.; Suttle, D. P.; Beck, W. T., Altered catalytic activity of and DNA cleavage by DNA topoisomerase II from human leukemic cells selected for resistance to VM-26. Biochemistry 1988, 27, 8861-8869. Resistance in CEM/VM-1-5 cells is effected by over expression of the […]. CEM, CEM/VLB100 and CEM/VM-1-5 cells were obtained from Dr. WT Beck, University of Illinois at Chicago."}, "[2]": {"assay": "Stability in rat plasma at 37° C.", "type": "in vitro ADME", "experimental": "The stability of the acid labile, lipophilic molecular conjugates to hydrolysis in plasma was evaluated to determine their potential to release the active cancer chemotherapeutic agents into systemic circulation and thereby cause general off target toxicity (“side effects”). The conjugates were incubated with plasma of mouse, rat and human origin.\nHPLC grade Methanol from Fisher (Fair lawn, NJ, USA). Part No: A452-4 (074833). HPLC grade Water from Fisher (Fair lawn, NJ, USA). Part No: W5-4 (073352). Drug-free mouse, rat and human plasmas were purchased from Innovative Research Inc. (Southfield, Mich., USA). LIPOSYN® I.V. (30% soybean oil and egg yolk phospholipids, Abbott Laboratories) Fat Emulsion from Hospira, Inc. (Lake Forest, Ill.).\nEach drug (ART 198, ART 273, ART 488 and ART 489) was prepared in triplicate in mouse, rat and human plasma individually at […] concentration and vortexed for 1 minute and placed in a water bath at 37° C. at a shake rate of 75 per minute. Samples were drawn at time points of 0, 15, 30, 45, 60, 75, 90, 105, 120, 135, 150, 165, 180, 210, 240, 300, 360 and 480 minutes.\nChromatographic separation of the compounds was performed on a Waters Acquity UPLC™ using a BEH C18 column (1.7 μm, 2.1×50 mm). The mobile phase consisted of Methanol: 0.1% Formic acid (80:20). The flow rate was 0.3 ml/min; the sample injection volume was 5 μL, resulting in a 3 minute run time.\nThe MS instrumentation consisted of a Waters Micromass Quattro Micro™ triple-quadrupole system (Manchester, UK). The MS system was controlled by a 4.0 version of MassLynx software. Ionization was performed in the positive electrospray ionization mode. MS/MS conditions were the following: capillary voltage 3.02 kV; cone voltage 50 v; extractor voltage 5 v; and RF lens voltage 0.5 v. The source and desolvation temperatures were 100° C. and 400° C. respectively, and the desolvation and cone gas flow were 400 and 30 L/hr, respectively.\nThe selected mass-to-charge (m/z) ratio transitions of the ART 198 used in the selected ion monitoring (SIM) were: for ART 198, 617 (M+K)^+, for ART 273, 589 (M+K)^+, for ART 488, 913 (M+Na)^+, and for ART 489, 957 (M+Na)^+. The dwell time was set at 200 msec. MS conditions were optimized using direct infusion of standard solutions prepared in methanol and delivered by a syringe pump at a flow rate of 20 μL/min.\nSamples of 100 μL were collected at time points of 0, 15, 30, 45, 60, 75, 90, 105, 120, 135, 150, 165, 180, 210, 240, 300, 360 and 480 minutes respectively and the reaction was terminated with methanol. In a separate set of experiments the acid labile, lipophilic molecular conjugates were dissolved in a small amount of ethanol and diluted into a lipid emulsion (Liposyn®) and added to mouse and human plasma before incubation and the hydrolysis of the conjugates was similarly measured. Collected plasma samples of 100 μL containing drug were placed in separate Eppendorf micro centrifuge tubes for processing. Methanol (200 μL) was added to extract the drug using the protein precipitation technique. The micro tubes were then vortex mixed for 10 minutes and centrifuged for 15 minutes at a speed of 10,000 rpm (Eppendorf 5415C centrifuge). The supernatant was collected and filtered using a 0.45 μm filter (Waters 13 mm GHP 0.45 μm) before analysis.\nThe weighted linear least-squares (1/x) regression was used as the mathematical model. The coefficient (r) for the compounds ranged from 0.9925 to 0.9999. The calibration range was selected according to the concentrations anticipated in the samples to be determined.\nSamples were collected at various times and the percent remaining of the acid labile, lipophilic molecular conjugate of the cancer chemotherapeutic agent was determined along with the percent of the chemotherapeutic agent released from the hydrolysis of the conjugate."}}}
{"smiles": "CCCCCCCCCCCCCCCC1OCC(COC(=O)OC2=C(C)[C@@H]3C[C@H]4OC(=O)C(OC(=O)CC5(O)CCCCC5)[C@H]5[C@]6(C(=O)OC)OC[C@]45[C@H]([C@@H](O)[C@@H]6O)[C@@]3(C)CC2=O)O1", "note": "(stereo partly shown) [ART 489]", "values": [{"measurement": "MTD at 30 days", "setting": "[1]", "value": 3.1, "unit": "mg/kg"}, {"measurement": "IC50", "setting": "CEM/VM-1-5 cells (MDR+)", "value": "24 ± 4", "unit": "nM"}, {"measurement": "Degree of resistance (CEM/VM-1-5)", "setting": "CEM/VM-1-5 cells (MDR+)", "value": "1.2 ± 0.07"}, {"measurement": "percent remaining of initial drug", "setting": "[2]; 0 min", "value": 100, "unit": "%"}, {"measurement": "percent remaining of initial drug", "setting": "[2]; 15 min", "value": 93.2, "unit": "%"}, {"measurement": "percent remaining of initial drug", "setting": "[2]; 30 min", "value": 75.8, "unit": "%"}, {"measurement": "percent remaining of initial drug", "setting": "[2]; 45 min", "value": 74.3, "unit": "%"}, {"measurement": "percent remaining of initial drug", "setting": "[2]; 60 min", "value": 75.0, "unit": "%"}, {"measurement": "percent remaining of initial drug", "setting": "[2]; 75 min", "value": 74.4, "unit": "%"}, {"measurement": "percent remaining of initial drug", "setting": "[2]; 90 min", "value": 74.4, "unit": "%"}, {"measurement": "percent remaining of initial drug", "setting": "[2]; 105 min", "value": 73.7, "unit": "%"}, {"measurement": "percent remaining of initial drug", "setting": "[2]; 120 min", "value": 69.9, "unit": "%"}, {"measurement": "percent remaining of initial drug", "setting": "[2]; 135 min", "value": 68.5, "unit": "%"}, {"measurement": "percent remaining of initial drug", "setting": "[2]; 150 min", "value": 67.3, "unit": "%"}, {"measurement": "percent remaining of initial drug", "setting": "[2]; 165 min", "value": 63.0, "unit": "%"}, {"measurement": "percent remaining of initial drug", "setting": "[2]; 180 min", "value": 63.0, "unit": "%"}, {"measurement": "percent remaining of initial drug", "setting": "[2]; 210 min", "value": 62.7, "unit": "%"}, {"measurement": "percent remaining of initial drug", "setting": "[2]; 240 min", "value": 61.7, "unit": "%"}, {"measurement": "percent remaining of initial drug", "setting": "[2]; 300 min", "value": 55.4, "unit": "%"}, {"measurement": "percent remaining of initial drug", "setting": "[2]; 360 min", "value": 48.2, "unit": "%"}, {"measurement": "percent remaining of initial drug", "setting": "[2]; 480 min", "value": 34.3, "unit": "%"}]}
{"smiles": "COC(=O)[C@@]12OC[C@]34[C@H]([C@@H](O)[C@@H]1O)[C@@]1(C)CC(=O)C(O)=C(C)[C@@H]1C[C@H]3OC(=O)C(OC(=O)CC1(O)CCCCC1)[C@@H]24", "note": "(stereo partly shown) [ART 198]", "values": [{"measurement": "MTD at 30 days", "setting": "[1]", "value": 4, "unit": "mg/kg"}, {"measurement": "IC50", "setting": "CEM/VM-1-5 cells (MDR+)", "value": "308 ± 10", "unit": "nM"}, {"measurement": "Degree of resistance (CEM/VM-1-5)", "setting": "CEM/VM-1-5 cells (MDR+)", "value": "3 ± 1"}, {"measurement": "percent remaining of initial drug", "setting": "[2]; 0 min", "value": 100, "unit": "%"}, {"measurement": "percent remaining of initial drug", "setting": "[2]; 15 min", "value": 95.8, "unit": "%"}, {"measurement": "percent remaining of initial drug", "setting": "[2]; 30 min", "value": 84.0, "unit": "%"}, {"measurement": "percent remaining of initial drug", "setting": "[2]; 45 min", "value": 66.0, "unit": "%"}, {"measurement": "percent remaining of initial drug", "setting": "[2]; 60 min", "value": 55.7, "unit": "%"}, {"measurement": "percent remaining of initial drug", "setting": "[2]; 75 min", "value": 54.4, "unit": "%"}, {"measurement": "percent remaining of initial drug", "setting": "[2]; 90 min", "value": 54.2, "unit": "%"}, {"measurement": "percent remaining of initial drug", "setting": "[2]; 105 min", "value": 54.0, "unit": "%"}, {"measurement": "percent remaining of initial drug", "setting": "[2]; 120 min", "value": 52.1, "unit": "%"}, {"measurement": "percent remaining of initial drug", "setting": "[2]; 135 min", "value": 48.9, "unit": "%"}, {"measurement": "percent remaining of initial drug", "setting": "[2]; 150 min", "value": 48.9, "unit": "%"}, {"measurement": "percent remaining of initial drug", "setting": "[2]; 165 min", "value": 45.4, "unit": "%"}, {"measurement": "percent remaining of initial drug", "setting": "[2]; 180 min", "value": 44.0, "unit": "%"}, {"measurement": "percent remaining of initial drug", "setting": "[2]; 210 min", "value": 42.7, "unit": "%"}, {"measurement": "percent remaining of initial drug", "setting": "[2]; 240 min", "value": 42.2, "unit": "%"}, {"measurement": "percent remaining of initial drug", "setting": "[2]; 300 min", "value": 34.3, "unit": "%"}, {"measurement": "percent remaining of initial drug", "setting": "[2]; 360 min", "value": 30.1, "unit": "%"}, {"measurement": "percent remaining of initial drug", "setting": "[2]; 480 min", "value": 30.1, "unit": "%"}]}
{"smiles": "CCCCCCCCCCCCCCCC1OCC(COC(=O)O[C@@H]2C(=O)C=C(C)[C@@H]3C[C@H]4OC(=O)C(OC(=O)CC(O)(C(C)C)C(C)C)C5[C@@H](C)[C@@H](O)[C@@]6(O)OC[C@@]54C6[C@@]23C)O1", "note": "(stereo partly shown) [ART 488]", "values": [{"measurement": "MTD at 30 days", "setting": "[1]", "value": 4, "unit": "mg/kg"}, {"measurement": "IC50", "setting": "CEM/VM-1-5 cells (MDR+)", "value": "8 ± 4", "unit": "nM"}, {"measurement": "Degree of resistance (CEM/VM-1-5)", "setting": "CEM/VM-1-5 cells (MDR+)", "value": "2 ± 1"}, {"measurement": "percent remaining of initial drug", "setting": "[2]; 480 min", "value": 33.3, "unit": "%"}]}
